Results reported in PubChem BioAssay AID2060912 (Molecular Pharmacology Branch, DTP, NCI, 2025).
pIC50: −log10 of the molar value.

Test system: HUVEC/MSC spheroids viability
Test: Human HUVEC/MSC cell line growth inhibition [KRAS2];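 as to viability, T/C: percent of DMSO vehicle control luminescence so 100% = untreated viability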
Conditions: for pIC50: curve of first compound; for viability, T/C: stronger effect = lower value
Procedure, shortened: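 Spheroids of pooled-donor HUVEC and hMSC (passage ≤5) without tumour cells were treated with KRAS-pathway inhibitors alone and combined with targeted agents. Top concentration was at or near clinical Cmax, or 10 microM when Cmax was unknown, descending in half-log steps.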

[1] = second compound 0.0316 µM, first compound 0.00316 µM
[2] = second compound 0.0316 µM, first compound 0.01 µM
[3] = second compound 0.0316 µM, first compound 0.0316 µM
[4] = second compound 0.0316 µM, first compound 0.1 µM
[5] = second compound 0.1 µM, first compound 0.00316 µM
[6] = second compound 0.1 µM, first compound 0.01 µM
[7] = second compound 0.1 µM, first compound 0.0316 µM
[8] = second compound 0.1 µM, first compound 0.1 µM
[9] = second compound 0.316 µM, first compound 0.00316 µM
[10] = second compound 0.316 µM, first compound 0.01 µM
[11] = second compound 0.316 µM, first compound 0.0316 µM
[12] = second compound 0.316 µM, first compound 0.1 µM
[13] = second compound 1 µM, first compound 0.00316 µM
[14] = second compound 1 µM, first compound 0.01 µM
[15] = second compound 1 µM, first compound 0.0316 µM
[16] = second compound 1 µM, first compound 0.1 µM
[17] = second compound 3.16 µM, first compound 0.00316 µM
[18] = second compound 3.16 µM, first compound 0.01 µM
[19] = second compound 3.16 µM, first compound 0.0316 µM
[20] = second compound 3.16 µM, first compound 0.1 µM
[21] = second compound 10 µM, first compound 0.00316 µM
[22] = second compound 10 µM, first compound 0.01 µM
[23] = second compound 10 µM, first compound 0.0316 µM
[24] = second compound 10 µM, first compound 0.1 µM

Compound `CCN1CCN(Cc2ccc(Nc3ncc(F)c(-c4cc(F)c5nc(C)n(C(C)C)c5c4)n3)nc2)CC1` + CC1OCC2(CCN(c3cnc(Sc4ccnc(N)c4Cl)c(N)n3)CC2)C1N has a pIC50 (second compound 0.0316 µM) of less than 6.00, a pIC50 (second compound 0.1 µM) of less than 6.00 and a pIC50 (second compound 0.316 µM) of less than 6.00. The pIC50 (second compound 1 µM) was less than 6.00, the pIC50 (second compound 3.16 µM) was less than 6.00 and the pIC50 (second compound 10 µM) was less than 6.00. The viability, T/C [1] was 105%, the viability, T/C [2] was 105% and the viability, T/C [3] was 95.6%. It also gave a viability, T/C [4] of 111%, a viability, T/C (second compound 0.0316 µM, first compound 0.316 µM) of 124% and a viability, T/C (second compound 0.0316 µM, first compound 1 µM) of 121%. The viability, T/C [5] was 111%, the viability, T/C [6] was 105% and the viability, T/C [7] was 117%. For the same compound, the viability, T/C [8] was 93.4%, the viability, T/C (second compound 0.1 µM, first compound 0.316 µM) was 123% and the viability, T/C (second compound 0.1 µM, first compound 1 µM) was 114%. The viability, T/C [9] was 108%, the viability, T/C [10] was 108% and the viability, T/C [11] was 102%. It also gave a viability, T/C [12] of 96.9%, a viability, T/C (second compound 0.316 µM, first compound 0.316 µM) of 117% and a viability, T/C (second compound 0.316 µM, first compound 1 µM) of 114%. For the same compound, the viability, T/C [13] was 94.3%, the viability, T/C [14] was 95.9% and the viability, T/C [15] was 85.6%. For the same compound, the viability, T/C [16] was 96%, the viability, T/C (second compound 1 µM, first compound 0.316 µM) was 102% and the viability, T/C (second compound 1 µM, first compound 1 µM) was 114%. It also gave a viability, T/C [17] of 81.1%, a viability, T/C [18] of 84.8% and a viability, T/C [19] of 88.2%. For the same compound, the viability, T/C [20] was 80%, the viability, T/C (second compound 3.16 µM, first compound 0.316 µM) was 96.2% and the viability, T/C (second compound 3.16 µM, first compound 1 µM) was 87.2%. It also gave a viability, T/C [21] of 74.8%, a viability, T/C [22] of 66% and a viability, T/C [23] of 67.2%. The viability, T/C [24] was 62.3%, the viability, T/C (second compound 10 µM, first compound 0.316 µM) was 84.1% and the viability, T/C (second compound 10 µM, first compound 1 µM) was 91.2%.
Compound `CC(=O)Nc1cccc(-n2c(=O)n(C3CC3)c(=O)c3c(Nc4ccc(I)cc4F)n(C)c(=O)c(C)c32)c1` + CC1OCC2(CCN(c3cnc(Sc4ccnc(N)c4Cl)c(N)n3)CC2)C1N has a pIC50 (second compound 0.0316 µM) of 7.74, a pIC50 (second compound 0.1 µM) of 7.80 and a pIC50 (second compound 0.316 µM) of 7.79. For the same compound, the pIC50 (second compound 1 µM) was 8.29, the pIC50 (second compound 3.16 µM) was 8.90 and the pIC50 (second compound 10 µM) was greater than 10.02. For the same compound, the viability, T/C (second compound 0.0316 µM, first compound 94.9 pM) was 110%, the viability, T/C (second compound 0.0316 µM, first compound 0.0003 µM) was 142% and the viability, T/C (second compound 0.0316 µM, first compound 0.000949 µM) was 113%. It also gave a viability, T/C (second compound 0.0316 µM, first compound 0.003 µM) of 118%, a viability, T/C (second compound 0.0316 µM, first compound 0.00949 µM) of 82.6% and a viability, T/C (second compound 0.0316 µM, first compound 0.03 µM) of 24.4%. The viability, T/C (second compound 0.1 µM, first compound 94.9 pM) was 118%, the viability, T/C (second compound 0.1 µM, first compound 0.0003 µM) was 106% and the viability, T/C (second compound 0.1 µM, first compound 0.000949 µM) was 104%. For the same compound, the viability, T/C (second compound 0.1 µM, first compound 0.003 µM) was 89.2%, the viability, T/C (second compound 0.1 µM, first compound 0.00949 µM) was 77.5% and the viability, T/C (second compound 0.1 µM, first compound 0.03 µM) was 21.9%. For the same compound, the viability, T/C (second compound 0.316 µM, first compound 94.9 pM) was 92.7%, the viability, T/C (second compound 0.316 µM, first compound 0.0003 µM) was 95.2% and the viability, T/C (second compound 0.316 µM, first compound 0.000949 µM) was 87.9%. It also gave a viability, T/C (second compound 0.316 µM, first compound 0.003 µM) of 81.8%, a viability, T/C (second compound 0.316 µM, first compound 0.00949 µM) of 74.5% and a viability, T/C (second compound 0.316 µM, first compound 0.03 µM) of 24.3%. The viability, T/C (second compound 1 µM, first compound 94.9 pM) was 85.6%, the viability, T/C (second compound 1 µM, first compound 0.0003 µM) was 75.1% and the viability, T/C (second compound 1 µM, first compound 0.000949 µM) was 69.1%. For the same compound, the viability, T/C (second compound 1 µM, first compound 0.003 µM) was 55.7%, the viability, T/C (second compound 1 µM, first compound 0.00949 µM) was 46% and the viability, T/C (second compound 1 µM, first compound 0.03 µM) was 10.9%. For the same compound, the viability, T/C (second compound 3.16 µM, first compound 94.9 pM) was 71.2%, the viability, T/C (second compound 3.16 µM, first compound 0.0003 µM) was 69.5% and the viability, T/C (second compound 3.16 µM, first compound 0.000949 µM) was 49.7%. It also gave a viability, T/C (second compound 3.16 µM, first compound 0.003 µM) of 39.9%, a viability, T/C (second compound 3.16 µM, first compound 0.00949 µM) of 22.7% and a viability, T/C (second compound 3.16 µM, first compound 0.03 µM) of 3.47%. The viability, T/C (second compound 10 µM, first compound 94.9 pM) was 48.7%, the viability, T/C (second compound 10 µM, first compound 0.0003 µM) was 39% and the viability, T/C (second compound 10 µM, first compound 0.000949 µM) was 33.3%. The viability, T/C (second compound 10 µM, first compound 0.003 µM) was 12.5%, the viability, T/C (second compound 10 µM, first compound 0.00949 µM) was 5.14% and the viability, T/C (second compound 10 µM, first compound 0.03 µM) was 0.77%.
`CC(C)n1nc(-c2ccc3oc(N)nc3c2)c2c(N)ncnc21` + CC1OCC2(CCN(c3cnc(Sc4ccnc(N)c4Cl)c(N)n3)CC2)C1N showed a pIC50 (second compound 0.0316 µM) of 7.83, a pIC50 (second compound 0.1 µM) of 8.08 and a pIC50 (second compound 0.316 µM) of 8.51. The pIC50 (second compound 1 µM) was 8.62, the pIC50 (second compound 3.16 µM) was 8.79 and the pIC50 (second compound 10 µM) was greater than 9.50. It also gave a viability, T/C (second compound 0.0316 µM, first compound 0.000316 µM) of 108%, a viability, T/C (second compound 0.0316 µM, first compound 0.001 µM) of 95.2% and a viability, T/C [1] of 63.9%. It also gave a viability, T/C [2] of 53.5%, a viability, T/C [3] of 50.4% and a viability, T/C [4] of 43.9%. It also gave a viability, T/C (second compound 0.1 µM, first compound 0.000316 µM) of 100%, a viability, T/C (second compound 0.1 µM, first compound 0.001 µM) of 93.8% and a viability, T/C [5] of 63.3%. It also gave a viability, T/C [6] of 49.6%, a viability, T/C [7] of 43.6% and a viability, T/C [8] of 36.4%. It also gave a viability, T/C (second compound 0.316 µM, first compound 0.000316 µM) of 85%, a viability, T/C (second compound 0.316 µM, first compound 0.001 µM) of 81.3% and a viability, T/C [9] of 49.2%. The viability, T/C [10] was 47.5%, the viability, T/C [11] was 42.6% and the viability, T/C [12] was 35.6%. It also gave a viability, T/C (second compound 1 µM, first compound 0.000316 µM) of 83.8%, a viability, T/C (second compound 1 µM, first compound 0.001 µM) of 71.2% and a viability, T/C [13] of 43.4%. It also gave a viability, T/C [14] of 33.1%, a viability, T/C [15] of 33.3% and a viability, T/C [16] of 28.9%. For the same compound, the viability, T/C (second compound 3.16 µM, first compound 0.000316 µM) was 62.6%, the viability, T/C (second compound 3.16 µM, first compound 0.001 µM) was 60% and the viability, T/C [17] was 36.5%. It also gave a viability, T/C [18] of 27.7%, a viability, T/C [19] of 22% and a viability, T/C [20] of 23.1%. For the same compound, the viability, T/C (second compound 10 µM, first compound 0.000316 µM) was 48.2%, the viability, T/C (second compound 10 µM, first compound 0.001 µM) was 41.8% and the viability, T/C [21] was 22.3%. For the same compound, the viability, T/C [22] was 16.2%, the viability, T/C [23] was 16.8% and the viability, T/C [24] was 10.7%.
